In data set [1] the target is MCL-1 (Homo sapiens, UniProt Q07820). As to the kind of experiment: Protein-protein interaction assay MCL-1/Noxa BH3 peptide (MCL-1 assay), TR-FRET. The format is binding. The note with it: MBP-MCL-1 / Noxa BH3-derived peptide, median. An outline of the steps:
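Steady-state competition, MCL-1/Noxa BH3, TR-FRET readout; 1 nM MBP-MCL-1, 11-point dose series 0.1 nM–20 μM; overnight 4 °C equilibration; 4-parameter IC50.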

Data set [2] deals with SUDHL5. The data set can be described thus: Induction of caspase-3/7 activity (Caspase-Glo 3/7), SUDHL5. The data set is classed as cell-based. The note with it: caspase-3/7 induction, SUDHL5 cells, 3 h treatment, median. In short, it runs like this: (§1)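 A 3 h, 37 °C compound incubation precedes the Caspase-Glo 3/7 read. After subtracting medium-only signal, EC50s are fitted against the reference compound's maximal caspase induction.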

Data set [3] deals with SUDHL10. The data set can be described thus: Induction of caspase-3/7 activity (Caspase-Glo 3/7), SUDHL10. The data set is classed as cell-based. The settings on record: caspase-3/7 induction, SUDHL10 cells, 3 h treatment, median. An outline of the steps:
as §1

The test system of data set [4] is SUDHL10. The data set can be described thus: Anti-proliferative effect (CellTiter-Glo, 72 h), SUDHL10. The format is cell-based. The note with it: SUDHL10 cells, antiproliferation, 72 h incubation, median, read-out: Antiproli SUDHL10 [M] (median). An outline of the steps:
(§2)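 Plate cells alongside a separate day 0 reference plate. Read the reference plate at once with CellTiter-Glo. Incubate treated cells 72 h at 37 °C, then read them the same way by luminescence.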

Data set [5] has as its system OPM2. The data set can be described thus: Anti-proliferative effect (CellTiter-Glo, 72 h), OPM2. The format is cell-based. The note with it: OPM2 cells, median, read-out: IC50 antiproliferation assay OPM2 [M] (median). In short, it runs like this:
as §2

In data set [6] the test system is A2780. As to the kind of experiment: Anti-proliferative effect (CellTiter-Glo, 72 h), A2780. The settings on record: A2780 cells, median, read-out: IC50 antiproliferation assay A2780 [M] (median). The data set is classed as cell-based. In short, it runs like this: as §2
Data set [7] has as its system SUDHL5. The data set can be described thus: Induction of cytotoxicity (CellTiter-Glo, 5 h), SUDHL5.
The subject of data set [8] is SUDHL10. As to the kind of experiment: Induction of cytotoxicity (CellTiter-Glo, 5 h), SUDHL10.
Data set [9] has as its system SUDHL5. As to the kind of experiment: Anti-proliferative effect (CellTiter-Glo, 72 h), SUDHL5. The data set is classed as cell-based. The note with it: SUDHL5 cells, antiproliferation, 72 h incubation, median, read-out: Antiproli SUDHL5 [M] (median). In short, it runs like this:
as §2

Where [10] appears, read: Homo sapiens, SU-DHL-5, 5 h, read-out: Cytotox SUDHL5 [M] (median), SUDHL5 cells, cytotoxicity induction, CellTiter-Glo, 5 h incubation, median.
Where [11] appears, read: Homo sapiens, SU-DHL10, 5 h, read-out: Cytotox SUDHL10 [M] (median), SUDHL10 cells, cytotoxicity induction, CellTiter-Glo, 5 h incubation, median.
[12] abbreviates: read-out: Cytotox SUDHL5 [M] (median), SUDHL5 cells, cytotoxicity induction, CellTiter-Glo, 5 h incubation, median.
The mark [13] stands for this setting: read-out: Cytotox SUDHL10 [M] (median), SUDHL10 cells, cytotoxicity induction, CellTiter-Glo, 5 h incubation, median.

“And” between values parts separate entries of the source, which are not always exact repeats. Equal entries are not always repeated. Structures can show the parent of a compound that is named as a salt. Where two headings read alike, the source gives them in different places. Bounds are passed on as bounds.

The values that follow come from patent publication US10981932B2, “Macrocyclic indole derivatives” (Bayer Aktiengesellschaft, priority 2016, dated 2021).

MCL-1, sequence (Q07820 whole entry): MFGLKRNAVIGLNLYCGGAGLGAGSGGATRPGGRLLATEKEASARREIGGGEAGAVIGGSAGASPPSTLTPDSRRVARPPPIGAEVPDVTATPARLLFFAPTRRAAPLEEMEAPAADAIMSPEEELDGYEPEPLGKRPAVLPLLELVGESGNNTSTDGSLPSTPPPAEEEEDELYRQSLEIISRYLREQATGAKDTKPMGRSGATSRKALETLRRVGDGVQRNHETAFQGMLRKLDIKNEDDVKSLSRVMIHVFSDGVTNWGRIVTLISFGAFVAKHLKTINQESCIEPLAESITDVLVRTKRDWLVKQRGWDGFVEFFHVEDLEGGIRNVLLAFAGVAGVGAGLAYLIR

In the case of `CN1CCCn2c(C(=O)O)c(CCCOc3cccc4ccccc34)c3cccc(c32)-c2c(CNCC(F)(F)F)nn(C)c2C1` (racemic) [Example 129, (rac)-7,9-dimethyl-1-[3-(naphthalen-1-yloxy)propyl]-11-{[(2,2,2-trifluoroethyl)amino]methyl}-4,5,6,7,8,9-hexahydropyrazolo[3′,4′:7,8][1,5]diazecino[9,10,1-hi]indole-2-carboxylic Acid (Racemate)], the IC50 was 0.0222 µM in [1]; 6.99e-06 M in data set [4] (Homo sapiens, SU-DHL10, 72 h); greater than 3.3e-05 M in data set [5] (Homo sapiens, OPM-2, 72 h); 1.7e-05 M in [6] (Homo sapiens, A2780, 72 h); greater than 3.3e-05 M in [7] (setting [10]); greater than 3.3e-05 M in [8] (setting [11]). The EC50 in data set [2] (Homo sapiens, SU-DHL-5, 3 h) was greater than 33 µM; in data set [3] (Homo sapiens, SU-DHL10, 3 h), greater than 33 µM.

`Cn1nc(CN2CCOCC2)c2c1COCCCn1c(C(=O)O)c(CCCOc3cccc4ccccc34)c3cccc-2c31` (racemic) [Example 138, (rac)-9-methyl-11-(morpholin-4-ylmethyl)-1-[3-(naphthalen-1-yloxy)propyl]-5,6,8,9-tetrahydro-4H-pyrazolo[4′,3′:8,9][1,5]oxazecino[7,6,5-hi]indole-2-carboxylic Acid]: the IC50 is 0.0135 µM in data set [1]; 1.16e-05 M in data set [4] (Homo sapiens, SU-DHL10, 72 h); greater than 3.3e-05 M in data set [5] (Homo sapiens, OPM-2, 72 h); greater than 3.3e-05 M in data set [6] (Homo sapiens, A2780, 72 h); 1.13e-05 M in data set [7] (setting [10]); greater than 3.3e-05 M in data set [8] (setting [11]). Also, the EC50 was 11.1 µM in data set [2] (Homo sapiens, SU-DHL-5, 3 h) and greater than 33 µM in data set [3] (Homo sapiens, SU-DHL10, 3 h).

As to `CC(C)OCc1nn(C)c2c1-c1cccc3c(CCCOc4cccc5ccccc45)c(C(=O)O)n(c13)CCCN(C)C2` (single isomer, unassigned) [Example 1-71, 7,9-dimethyl-1-[3-(naphthalen-1-yloxy)propyl]-1-[(propan-2-yloxy)methyl]-4,5,6,7,8,9-hexahydropyrazolo[3′,4′:7,8][1,5]diazecino[9,10,1-hi]indole-2-carboxylic Acid], the IC50 in [1] is 0.0283 µM; in data set [4] (Homo sapiens, SU-DHL10, 72 h), 2.13e-05 M; in [5] (Homo sapiens, OPM-2, 72 h), 2.57e-05 M; in [6] (Homo sapiens, A2780, 72 h) it was 2.55e-05 M; in [7] (setting [12]), 1.98e-05 M and > 3.3e-05 M; in data set [8] (setting [11]), greater than 3.3e-05 M. Moreover, the EC50 in [2] (Homo sapiens, SU-DHL-5, 3 h) was greater than 33 µM; in data set [3] (Homo sapiens, SU-DHL10, 3 h), greater than 33 µM.

For `CC(C)OCc1nn(C)c2c1-c1cccc3c(CCCOc4cccc5ccccc45)c(C(=O)O)n(c13)CCCCN(C)C2` (single isomer, unassigned) [Example 1-75, 1,14-dimethyl-7-[3-(naphthalen-1-yloxy)propyl]-3-[(propan-2-yloxy)methyl]-10,11,12,13,14,15-hexahydro-1H-pyrazolo[3′,4′:8,9][1,6]diazacycloundecino[10,11,1-hi]indole-8-carboxylic Acid], the IC50 was 0.00593 µM in [1]; 1.56e-05 M in data set [9]; 1.12e-05 M in [4]; 9.37e-06 M in data set [5]; 1.39e-05 M in [6]; 1.9e-05 M and > 3.3e-05 M in data set [8] (setting [13]). Besides, the EC50 in [2] is 30.5 µM and > 33 µM; in data set [3], greater than 33 µM.

Take `CN(C)S(=O)(=O)N1CCN(c2ccc(OCc3nn(C)c4c3-c3cccc5c(CCCOc6cccc7ccccc67)c(C(=O)O)n(c35)CCCCCC4)cc2)CC1` (single isomer, unassigned; enantiomer 2) [Example 1-41, 3-({4-[4-(dimethylsulfamoyl)piperazin-1-yl]phenoxy}methyl)-1-methyl-7-[3-(naphthalen-1-yloxy)propyl]-10,11,12,13,14,15-hexahydro-1H-pyrazolo[4′,3′:4,5]azacycloundecino[3,2,1-hi]indole-8-carboxylic acid-N-ethylethanamine Salt (Enantiomer 2)]: the IC50 in data set [1] was found to be 0.00106 µM; in data set [4] it was 1.1e-06 M; in data set [5], 2.17e-06 M; in [6], 5.32e-06 M; in [7] (setting [12]) it was 7.69e-07 M; in data set [8] (setting [13]) it was 1.52e-06 M. The values for the EC50 in data set [2] and in data set [3] were 0.723 µM and 0.897 µM, respectively.

`Cc1c2c(nn1CCN1CCOCC1)COCCCCn1c(C(=O)O)c(CCCOc3cccc4ccccc34)c3cccc-2c31` (single isomer, unassigned; enantiomer 2) [Example 055, 3-methyl-2-[2-(morpholin-4-yl)ethyl]-7-[3-(naphthalen-1-yloxy)propyl]-2,10,11,12,13,15-hexahydropyrazolo[4′,3′:9,10][1,6]oxazacycloundecino[8,7,6-hi]indole-8-carboxylic acid-N-ethylethanamine Salt (Enantiomer 2)]: the IC50 in [1] is 0.041 µM; in [4], 1.17e-05 M; in data set [5] it was greater than 3.3e-05 M; in data set [6], greater than 3.3e-05 M; in data set [7] (setting [12]), greater than 3.3e-05 M; in data set [8] (setting [13]), greater than 3.3e-05 M. For the same compound, the EC50 in data set [2] and in data set [3] was greater than 33 µM throughout.

Consider `COCCn1nc2c(c1CN1CCOCC1)-c1cccc3c(CCCOc4cccc5ccccc45)c(C(=O)O)n(c13)CCCN(C)C2` (single isomer, unassigned; enantiomer 2) [Example 058, 10-(2-methoxyethyl)-7-methyl-11-(morpholin-4-ylmethyl)-1-[3-(naphthalen-1-yloxy)propyl]-4,5,6,7,8,10-hexahydropyrazolo[3′,4′:7,8][1,5]diazecino[9,10,1-hi]indole-2-carboxylic Acid (Enantiomer 2)], for which the IC50 in data set [1] was 0.116 µM; in data set [4], 2.05e-05 M; in data set [5] it was greater than 3.3e-05 M; in [6], greater than 3.3e-05 M; in [7] (setting [12]), greater than 3.3e-05 M; in [8] (setting [13]), greater than 3.3e-05 M. The EC50 in data set [2] and in [3] was greater than 33 µM throughout.

`CC(C)c1c2c(nn1C)CN(C)CCCn1c(C(=O)O)c(CCCOc3cccc4ccccc34)c3cccc-2c31` (single isomer, unassigned; enantiomer 2) [Example 115, 7,10-dimethyl-1-[3-(naphthalen-1-yloxy)propyl]-1-(propan-2-yl)-4,5,6,7,8,10-hexahydropyrazolo[3′,4′:7,8][1,5]diazecino[9,10,1-hi]indole-2-carboxylic Acid (Enantiomer 2)]: the IC50 in data set [1] came out at 0.0829 µM; in data set [4], 4.86e-06 M; in [5], 1.9e-05 M; in data set [6] it was 1.19e-05 M; in data set [7] (setting [12]), 1.13e-05 M; in [8] (setting [13]), 1.49e-05 M. Further, the EC50 in data set [2] is greater than 33 µM; in data set [3] it was 30.5 µM.

On to `COCc1nn(C)c2c1-c1cccc3c(CCCOc4cccc5ccccc45)c(C(=O)O)n(c13)CCCCOC2` (single isomer, unassigned; enantiomer 2) [Example 160, 3-(methoxymethyl)-1-methyl-7-[3-(naphthalen-1-yloxy)propyl]-1,10,11,12,13,15-hexahydropyrazolo[4′,3′:9,10][1,6]oxazacycloundecino[8,7,6-hi]indole-8-carboxylic acid-N-ethylethanamine Salt (Enantiomer 2)], for which the IC50 was 0.0208 µM in [1]; 1.49e-05 M in data set [4]; greater than 3.3e-05 M in data set [5]; greater than 3.3e-05 M in data set [6]; 2.05e-05 M in [7] (setting [12]); greater than 3.3e-05 M in [8] (setting [13]). In addition, the EC50 in data set [2] is 17.9 µM; in data set [3], greater than 33 µM.

Take `CCOCc1nn(C)c2c1-c1cccc3c(CCCOc4cccc5c4CCCC5)c(C(=O)O)n(c13)CCCCOC2` (single isomer, unassigned; enantiomer 2) [Example 172, 3-(ethoxymethyl)-1-methyl-7-[3-(5,6,7,8-tetrahydronaphthalen-1-yloxy)propyl]-1,10,11,12,13,15-hexahydropyrazolo[4′,3′:9,10][1,6]oxazacycloundecino[8,7,6-hi]indole-8-carboxylic Acid (Enantiomer 2)]: the IC50 in data set [1] is 0.144 µM; in data set [4], 1.53e-05 M; in data set [5], greater than 3.3e-05 M; in [6], greater than 3.3e-05 M; in data set [7] (setting [12]), greater than 3.3e-05 M; in data set [8] (setting [13]) it was greater than 3.3e-05 M. The EC50 in data set [2] and in data set [3] was greater than 33 µM each time.
